Columns and labels:
[1] = tested on: bFGF-induced neoangiogenesis; experiment: Rat corneal micropocket assay, bFGF disks; type: in vivo; conditions: 160 mg/kg orally by gavage once per day, days 1 through 10; Fisher 344 female rats
Procedure: Rat Corneal Micropocket Assay
Fisher 344 female rats (145–155 grams; Taconic, Inc., Germantown, N.Y.) were anesthesized with acepromazine (2.5 mg/kg, ip) 20 minutes prior to initiation of 2–3% isoflurane/oxygen inhalation. The body temperature was maintained with a circulating hot water pad. The surgery was performed using an ophthalmic operating microscope (OMS.75 Operating Microscope, TopCon Corporation, Japan). A scalpel blade (#15) was used to make a vertical half-thickness linear corneal incision just lateral to the center of the eye. […] A pocket was formed in the cornea using blunt dissection with corneal scissors (Roboz, Rockville, Md.). Nitrocellulose filters ([…], Millipore, Bedford, Mass.) were cut into small disks using a 20 gauge needle punch. The disks were soaked in 2 μl of human VEGF solution ([…]; R&D Systems) or human basic fibroblast growth factor (0.20 μg/μl; R&D Systems) for 10 minutes on ice. Using forceps, the disks impregnated with the angiogenic factor (VEGF or bFGF) were inserted into the corneal pocket so that the disk is firmly covered with corneal epithelium. […] The images were analyzed by converting the area of interest to high contrast black and white reversed image and counting the bright pixels as a determination of the vascular area. […]

[2] = tested on: HCT116 colon carcinoma cells; experiment: HCT116 colon carcinoma cell growth inhibition (WST-1, 72 hr); type: cell-based, human; conditions: Homo sapiens, HCT-116, 72 hr exposure
Procedure: HCT116 Colon Carcinoma Cell Growth Inhibition
HCT116 colon carcinoma cells were grown monolayer culture in RPMI 1640 medium supplemented with 10% fetal bovine serum and 1% penicillin-streptomycin (GibcoBRL, Grand Island, N.Y.). HCT116 cells in exponential growth phase were exposed to various concentrations of the test compounds at 37° C. for 72 hr in 5% carbon dioxide/air. After exposure to the agent, the cells were washed with 0.9% phosphate buffered saline. Growth inhibition was determined using WST-1 cell proliferation reagent as described above. The results are expressed as the growth fraction of treated cells compared with control cultures. Representative compounds of the present invention were tested for efficacy against the human colon HCT116 tumor cells.

[3] = tested on: TAXOL SENSITIVE HUMAN COLON ADENOCARCINOMA #15/0; experiment: Early stage taxol sensitive human colon adenocarcinoma #15/0 xenograft (Table V); type: in vivo; conditions: total dose 420 mg/kg: 140 mg/kg/injection IV on days 3, 5, and 7; Balb/C SCID female mice
Description: (§1) Conventional Murine Tumor and Human Tumor Xenouraft Assays
(§2) Inhibition of tumors transplanted into mice is an accepted procedure for studying the efficacy of antitumor agents (Corbett, et al., In vivo Methods for Screening and Preclinical Testing; Use of rodent solid tumors for drug discovery., In: Anticancer Drug Development Guide: Preclinical Screening, Clinical Trials, and Approval, B. Teicher (ed), Humana Press Inc., Totowa, N.J., Chapter 5, pages 75–99 (1997); (Corbett, et al., Int., J. Parmacog., 33, Supplement, 102–122 (1995)). Murine tumors or human xenographs were implanted essentially as described by Corbett in In vivo Methods for Screening and Preclimical Testing; Use of rodent solid tumors for drug discovery. Briefly, the murine tumor or human xenograph was implanted subcutaneously using either 12-gauge trocar implants or counted number of cells. The location for the trocar insertion is midway between the axillary and inguinal region along the side of the mouse. The trocar is slipped approximately ¾ of an inch subcutaneously up toward the axilla before discharging the tumor fragment, and pinching the skin as the trocar is removed., Alternatively, human tumor cells prepared from a […] of donor tumors (5×10^6 cells) were implanted subcutaneously in a hind-leg of a male or female nude mouse (Charles River). Either a test compound in vehicle or vehicle alone was administered by intravenous bolus injection (iv), intraperitoneal injection (ip), or oral gavage (po). Each treatment group, as well as a group of untreated control animals, consisted of five animals per group in each experiment. Subcutaneous tumor response was monitored by tumor volume measurement performed twice each week over the course of the experiment (60–120 days). Body weights were taken as a general measure of toxicity. The subcutaneous tumor data were analyzed by determining the median tumor weight for each treatment group over the course of the experiment and calculating the tumor growth delay as the difference in days for the treatment versus the control tumors to reach a volume of either 500 or 1000 mm^3.
(§3) The compound of Example 110 was tested against a variety of murine and human tumors substantially as described supra. The parameters measured in each experiment are summarized in the following paragraphs. • Tumor Weight(mg)=(a×b^2)/2 where a=tumor length (mm) and b=tumor width (mm). • Tumor Growth Delay=T−C where T is the median time (days) required for the treatment group tumors to reach a predetermined size, and C is the median time (days) for the control group tumors to reach the same size. Tumor-free survivors are excluded from this calculation, and are tabulated separately (Tumor Free).
(§4) [formula] • where Tumor Growth Delay is as previously defined and Td is tumor volume doubling time (days), estimated from the best fit straight line from a log-linear growth plot of the control group of tumors in exponential growth (100–800 mg range) • % T/C mass—The treatment and control groups are measured when the control group tumors reach approximately 700 to 1200 mg in size (median group). The median tumor weight of each group is determined (including zeros). The T/C value in percent is an indication of antitumor effectiveness. A T/C≦42% is considered significant antitumor activity. A T/C<10% is considered to indicate highly significant antitumor activity. • Body Weight Loss Nadir—A body weight loss nadir (mean of group) of greater than 20% or drug deaths greater than 20% are considered to indicate an excessively toxic dosage in single course trials. • Activity Rating—the Activity Rating is derived from the Log Kill according to the following table: […]

HUMAN BREAST WSU-Br-1 = experiment: Upstaged human breast WSU-Br-1 xenograft (Table VIII); type: in vivo; conditions: Balb/C SCID female mice
Description: as §1, §2, §3, §4

[4] = total dose 500 mg/kg: 100 mg/kg/injection IV on days 11–13 and 19–20
[5] = total dose 725 mg/kg: 145 mg/kg/injection IV on days 11–13 and 19–20

O=C(NS(=O)(=O)c1ccccc1)c1ccc(Cl)cc1Cl [Example 110, N-[2,4-dichlorobenzoyl]phenylsulfonamide]
inhibition of bFGF-induced neoangiogenesis [1]: not an effective inhibitor
IC50 [2]: 3.5 µM
% BODY WT LOSS AT NADIR [3]: 0%
% T/C MASS [3]: 0%
ACTIVITY RATING [3]: ++++ (HIGHLY ACTIVE >2.8)
DRUG DEATHS [3]: 0/5
GROWTH DELAY [3]: 33.5 days
LOG KILL [3]: 5.0
TUMOR FREE AT DAY 151 [3]: 1/5
% BODY WT LOSS AT NADIR (HUMAN BREAST WSU-Br-1; [4]): +14%
% T/C MASS (HUMAN BREAST WSU-Br-1; [4]): 0%
ACTIVITY RATING (HUMAN BREAST WSU-Br-1; [4]): ++++ (HIGHLY ACTIVE >2.8)
DRUG DEATHS (HUMAN BREAST WSU-Br-1; [4]): 0/5
GROWTH DELAY (HUMAN BREAST WSU-Br-1; [4]): 39 days
LOG KILL (HUMAN BREAST WSU-Br-1; [4]): 2.0
TUMOR FREE AT DAY 179 (HUMAN BREAST WSU-Br-1; [4]): 2/5
% BODY WT LOSS AT NADIR (HUMAN BREAST WSU-Br-1; [5]): +3.9%
% T/C MASS (HUMAN BREAST WSU-Br-1; [5]): 0%
ACTIVITY RATING (HUMAN BREAST WSU-Br-1; [5]): ++++ (HIGHLY ACTIVE >2.8)
DRUG DEATHS (HUMAN BREAST WSU-Br-1; [5]): 0/5
GROWTH DELAY (HUMAN BREAST WSU-Br-1; [5]): 57 days
LOG KILL (HUMAN BREAST WSU-Br-1; [5]): 2.9
TUMOR FREE AT DAY 179 (HUMAN BREAST WSU-Br-1; [5]): 2/5
